In the OPERA property sets (Mansouri et al. 2018):

| logP | Structure (SMILES) |
| --- | --- |
| 6.97 | CCCCCCCCCCCc1ccc(O)c(O)c1 |
| 8.61 | CCCCCCCCCCCCCc1ccccc1O |
| 7.75 | CCCCCCCCCCCCCc1cccc(O)c1O |
| 5.61 | CCCCCCCCCc1cccc(O)c1 |
| 6.98 | CCCCCCCCCCCc1cccc(O)c1 |
| 7.17 | CCCCCCCCCCCc1ccccc1O |
| 7.18 | CCCCCCCCCCCc1ccc(O)cc1 |
| 6.3 | CCCCCCCCCCCc1cccc(O)c1O |
| 3.11 | CCCCCc1ccc(O)c(O)c1 |
| 6.84 | CCCCCCCCCCCCCc1ccc(O)cc1O |
| 8.29 | CCCCCCCCCCCCCCCc1ccc(O)cc1O |

| Structure (SMILES) | logP |
| --- | --- |
| CCCCCCCCCc1ccccc1O | 5.76 |
| CCCCCCCCCc1ccc(O)cc1 | 5.76 |
| CCCCCCCCCCCCc1ccc(O)cc1 | 7.91 |
